A word on the melting point: it is the temperature, or range, at which the solid turns liquid.

Molecule `CN(C)c1ccc(C(=O)N[C@H](Cc2ccc(C(F)(F)F)cc2)[C@@H](O)c2ccc(F)cc2)c2ccccc12` (racemic) [Example 75, 4-(dimethylamino)-N-((1RS,2SR)-2-(4-fluorophenyl)-2-hydroxy-1-((4-(trifluoromethyl)phenyl)methyl)ethyl)-1-naphthalenecarboxamide] showed a melting point of 169 to 170 °C.
`O=C(N[C@H](Cc1ccc(C(F)(F)F)cc1)[C@@H](O)c1ccc(F)cc1)c1cc(Cl)cc2ccccc12` (racemic) [Example 76, 3-chloro-N-[(1RS,2SR)-2-(4-fluorophenyl)-2-hydroxy-1-[4-(trifluoromethyl)benzyl]ethyl]naphthalene-1-carboxamide] gave a melting point of 220 to 221 °C.
The same measure for `O=C(N[C@H](Cc1ccc(C(F)(F)F)cc1)[C@@H](O)c1ccc(F)cc1)c1cccc2c1OCC2` (racemic) [Example 77, N-((1RS,2SR)-2-(4-fluorophenyl)-2-hydroxy-1-((4-(trifluoromethyl)phenyl)methyl)ethyl)-2,3-dihydro-1-benzofuran-7-carboxamide]: 121 to 122 °C.
The same measure for `O=C(CBr)N[C@H](Cc1ccc(C(F)(F)F)cc1)[C@@H](O)c1ccc(F)cc1` (racemic) [Example 78, 2-bromo-N-((1RS,2SR)-2-(4-fluorophenyl)-2-hydroxy-1-((4-(trifluoromethyl)phenyl)methyl)ethyl)acetamide]: 151 to 152 °C; for `CCCCc1ccc(C(=O)N[C@H](Cc2ccc(C(F)(F)F)cc2)[C@@H](O)c2ccc(F)cc2)cc1` (racemic) [Example 79, 4-butyl-N-((1RS,2SR)-2-(4-fluorophenyl)-2-hydroxy-1-((4-(trifluoromethyl)phenyl)methyl)ethyl)benzamide]: 171 to 172 °C.
In the case of `O=C(N[C@H](Cc1ccc(C(F)(F)F)cc1)[C@@H](O)c1ccc(F)cc1)c1cccc2cccnc12` (racemic) [Example 80, N-((1RS,2SR)-2-(4-fluorophenyl)-2-hydroxy-1-((4-(trifluoromethyl)phenyl)methyl)ethyl)-8-quinolinecarboxamide] it was 83 to 84 °C; in that of `O=C(N[C@H](Cc1ccc(C(F)(F)F)cc1)[C@@H](O)c1ccc(F)cc1)c1ccc(C(F)(F)F)cc1` (racemic) [Example 81, N-((1RS,2SR)-2-(4-fluorophenyl)-2-hydroxy-1-((4-(trifluoromethyl)phenyl)methyl)ethyl)-4-(trifluoromethyl)benzamide], 228 to 229 °C; in that of `O=C(Cc1cccc2ccccc12)N[C@H](Cc1ccc(C(F)(F)F)cc1)[C@@H](O)c1ccc(F)cc1` (racemic) [Example 82, N-((1RS,2SR)-2-(4-fluorophenyl)-2-hydroxy-1-((4-(trifluoromethyl)phenyl)methyl)ethyl)-2-(1-naphthalenyl)acetamide], 186 to 187 °C.
With `CCOc1ccc2ccccc2c1C(=O)N[C@H](Cc1ccc(C(F)(F)F)cc1)[C@@H](O)c1ccc(F)cc1` (racemic) [Example 83, 2-(ethyloxy)-N-((1RS,2SR)-2-(4-fluorophenyl)-2-hydroxy-1-((4-(trifluoromethyl)phenyl)methyl)ethyl)-1-naphthalenecarboxamide], the melting point lay in the range of 157 to 158 °C.
In the case of `O=C(N[C@H](Cc1ccc(C(F)(F)F)cc1)[C@@H](O)c1ccc(F)cc1)c1c2ccccc2cc2ccccc12` (racemic) [Example 84, N-((1RS,2SR)-2-(4-fluorophenyl)-2-hydroxy-1-((4-(trifluoromethyl)phenyl)methyl)ethyl)-9-anthracenecarboxamide] it was 251 to 252 °C; in that of `O=C(N[C@H](Cc1ccc(C(F)(F)F)cc1)[C@@H](O)c1ccc(F)cc1)c1cccc2c1C(=O)c1ccccc1-2` (racemic) [Example 85, N-((1RS,2SR)-2-(4-fluorophenyl)-2-hydroxy-1-((4-(trifluoromethyl)phenyl)methyl)ethyl)-9-oxo-9H-fluorene-1-carboxamide], 185 to 186 °C.
